From US9744186B2 (priority 2012, dated 2017)

What was measured:
[1] = system: HCV luciferase replicon; test: Reversal of anti-HCV activity by exogenous nucleosides; assay type: cell-based, hepatitis C virus (HCV); details: 48 h
Experimental: After 48 hours, the cells were lysed, and the total luciferase activity was determined. […] Where indicated, either 50 μM cytidine (C) or 50 μM 2′-deoxycitidine (dC) was also included.
The cells were plated, incubated with drug, and luciferase activity assayed essentially as described herein above. The incubation with drug was for 48 h.

[2] = system: HCV luciferase replicon; test: HCV luciferase replicon IC50 assay in Huh7 cells; details: for IC50: Hepatitis C virus, Huh-7, 48 h, Huh7 cells containing HCV luciferase replicon, cells exposed to drug for 48 h; for Therapeutic Index (TC50/IC50): TC50 in Huh7 / IC50 HCV replicon, 48 h
Experimental: Plating Cells: The Luciferase replicon cell line was passaged when it was at about 70% confluency. The cells were counted by using a hemocytometer and diluted to 1×10^5 cells per mL in DMEM+10% FBS+[…] G415. The cells were plated as follows: 100 μL of the cells (10,000 cells) per well in a white-walled 96-well plate. The cells were allowed to attach for 24 hours at 37° C.
(§1) Treating the cells: Media (DMEM+2% FBS) was pre-warmed to 37° C. […] The 96-well plate was removed from the 37° C. incubator, and the media replaced on the plate with the serial dilutions of the test drug. The plate was then returned to 37° C. for 48 h.
Luciferase Assay: The Bright-Glo reagent (Promega Corporation, Madison, Wis.) was removed from the −80° C. freezer and allowed to thaw it at 4° C. in the dark. The amount of reagent necessary for the experiment (3.65 mL) was removed, and the remaining reagent was returned to −80° C. The Glo Lysis Buffer and the Bright Glow reagent were allowed to warm to room temperature for 30 min in the dark. The 96 well plate was removed from the incubator and the cells to allowed cool to room temperature for 30 min. The media was removed from the cells, and each well was gently washed in 100 μL of phosphate buffered saline (PBS). The PBS was removed and then 50 μL of the Glo Lysis Buffer was added to each well, followed by gently rocking the plate for 15 min at room temperature in the dark to ensure complete cell lysis. To each well of the 96-well plate was added 50 μL of the Bright Glo reagent and it was mixed well with the lysate. The plate was inserted into a GloMax 96 plate reader and allowed to sit for 5 min in the dark for the luciferase reaction to reach a steady state. The luminescence on the plate was read by using the pre-installed “Bright Glo” Promega program (Synergy Software) and the data were collected and saved. The data were fit to a 4 parameter logistic curve using Kaleidagraph using the following equation: 100/(1+(x/m3)^m4).
The data in Table 1 were determined for cells exposed to drug for 48 h. The IC50 is the concentration of each compound necessary to inhibit the replication of the HCV luciferase replicon to 50%.
That is, the cells were exposed to drug for 2 h at 37° C., followed by 46 h at 37° C. or incubated in the presence of drug for 48 h at 37° C.

[3] = system: Huh7 cells; test: in vitro; details: read-out: TC50; control Huh7 cells; 48 h drug exposure; MTS
Experimental: (§2) Plating Cells: The Huh7 cell line was passaged when it was at about 70% confluency. The cells were counted using a hemocytometer, followed by dilution of the cells to 0.5×10^5 cells per mL in DMEM+10% FBS. The cells were plated at 100 μL (5,000 cells) per well in a clear 96-well plate. The cells were allowed to attach for 24 hours at 37° C.
(§3) Treating the cells: The media (DMEM media without phenol red+2% FBS media) was pre-warmed to 37° C. […] This provided a final DMSO concentration of 0.5%. The 100 mM stock of 3,5-dichlorobenzoic acid was diluted in DMEM without phenol red+2% FBS to a concentration of 0.5 mM. The working 0.5 mM diluted test drugs were serially diluted in DMEM without phenol red+2% FBS+0.5% DMSO in order to maintain a constant concentration of DMSO in each condition. The 96-well plate was removed from the 37° C. incubator, and the media on the plate was replaced with media containing diluted test drug.
(§4) MTS Assay: The reagents from CellTiter 96 kit (Promega Corporation, Madison, Wis.) were thawed at room temperature in the dark for 1 h. The 96-well plate was removed from the 37° C. incubator at 48 h after drug treatment. 20 μL of the combined MTS/PMS reagent to each well of the plate, mixed, and the plate returned to 37° C. The absorbance of each well at 490 nm and 650 nm was determined using the Flexstation 3 microplate reader in endpoint mode every hour for 3 h. The solutions in the wells were mixed prior to each reading. The data were fit to the Emax model: y=(Emax*x)/(TC50+x), where Emax is the maximum inhibition and TC50 is the inhibitory dose 50%. Alternatively, the data can be fit to the Emax sigmoidal model: y=(Emax*x^slope)/(TC50^slope+x^slope), where slope is the Hill Slope.

[4] = TC50 MTS assay with human cancer cell lines: HEK293; assay type: cell-based; details: HEK293 cells, 96 h drug treatment
Experimental: (§5) Plating Cells: The Huh7, HEPG2, HEK293, MCF-7, PK9, RPK9, or BxPC3 cells were passaged when they were about 70% confluent. The cells were counted using a hemocytometer, and then diluted cells to 0.5×10^5 cells per mL in DMEM+10% FBS. 100 µL of the cells (5,000 cells) were plated per well in a clear 96-well plate. The cells were allowed to attach for 24 hours at 37° C.
(§6) Treating the cells: Pre-warm the DMEM media without phenol red+2% FBS media to 37° C. […] This will bring the final DMSO concentration to 0.5%. Use these 0.5 mM dilutions to further serially the drugs in DMEM without phenol red+2% FBS+0.5% DMSO. This will keep the concentration of DMSO in each condition identical. Remove the 96-well plate from the 37° C. incubator. Replace the media on the plate with the dilutions of the drugs. Stagger these treatments by 1 h and write the treatment time on each set of plates. Return to 37° C. for 48 h or 96 h as indicated.
as §4, with “Fit Data” for “The data were fit”, “Alternatively, fit” for “Alternatively,”, “data” for “data can be fit”
(§7) Each TC50 was the average value of three measurements as described herein. […] The RPK9 cells are deficient in deoxycytidine kinase (“dCK”) activity, an enzyme required for the initial phosphorylation of dFdC to dFdCMP (see FIG. 2).

[5] = system: Huh7 cells; test: TC50 MTS assay with human cancer cell lines: Huh7; assay type: cell-based; details: 96 h drug treatment
Experimental: as §5, §6
as §4, with “Fit Data” for “The data were fit”, “Alternatively, fit” for “Alternatively,”, “data” for “data can be fit”
as §7

[6] = Compound solubility in media; assay type: physicochemical; details: DMEM+2% FBS cell culture media, 37 °C, plasma or biological fluid, kinetic from dmso stock; DMEM+2% FBS media
Experimental: as §1

[7] = TC50 MTS assay with human cancer cell lines: MCF-7; assay type: cell-based; details: MCF-7 cells, 96 h drug treatment
Experimental: as §5, §6
as §4, with “Fit Data” for “The data were fit”, “Alternatively, fit” for “Alternatively,”, “data” for “data can be fit”
as §7

[8] = TC50 MTS assay with human cancer cell lines: HEPG2; assay type: cell-based; details: HEPG2 cells, 96 h drug treatment
Experimental: as §5, §6
as §4, with “Fit Data” for “The data were fit”, “Alternatively, fit” for “Alternatively,”, “data” for “data can be fit”
as §7

[9] = in vitro
Experimental: as §2, §3, §4

[10] = TC50 MTS assay with human cancer cell lines: Huh7; assay type: cell-based; details: human, Huh7 cells; 48 h drug treatment; no hENT1 inhibitor; read-out: TC50 (μM) in Huh7 cells Control
Experimental: as §5, §6
as §4, with “Fit Data” for “The data were fit”, “Alternatively, fit” for “Alternatively,”, “data” for “data can be fit”
as §7

[11] = system: hENT1; test: TC50 MTS assay with human cancer cell lines: Huh7; assay type: cell-based; details: human, Huh7 cells; 48 h drug treatment; 10 μM S-(4-nitrobenzyl)-6-thioinosine (hENT1 inhibitor) added; read-out: TC50 (μM) in Huh7 cells NBTI
Experimental: as §5, §6
as §4, with “Fit Data” for “The data were fit”, “Alternatively, fit” for “Alternatively,”, “data” for “data can be fit”
as §7

Structure (SMILES)	IC50 [2] [µM]	Therapeutic Index (TC50/IC50) [2]	solubility [6] [µM]	CC50 at 48 h [9] [µM]	also measured
O=C(O)c1cc(Cl)cc(Cl)c1 [3,5-dichlorobenzoic acid, reference compound]					effect on the HCV luciferase replicon ([1]; up to 500 μM): little effect
COc1cccc(OC)c1C(=O)Nc1ccn([C@@H]2O[C@H](CO)[C@@H](O)C2(F)F)c(=O)n1 [Compound G2DB, N^4-(2,6-Dimethoxybenzoyl)gemcitabine]	0.451 ± 0.037	10155			CC50 [3]: 4580 ± 1100 µM
COc1cc(OC)cc(C(=O)Nc2ccn([C@@H]3O[C@H](CO)[C@@H](O)C3(F)F)c(=O)n2)c1 [Compound G3DB, N^4-(3,5-Dimethoxybenzoyl)gemcitabine]	0.0734 ± 0.012	13100	> 500		CC50 [3]: 962 ± 110 µM; CC50 at 96 h [4]: 4.02 ± 0.79 µM; CC50 [5]: 18.5 ± 5.32 µM; reversal of the inhibition of the HCV luciferase replicon by deoxycytidine and cytidine ([1]; drug 1000, 100 or 25 nM, 50 μM cytidine or 2′-deoxycitidine): reversal; CC50 at 96 h [7]: 1.57 ± 0.338 µM; CC50 at 96 h [8]: 3.86 ± 1.42 µM
O=C(Nc1ccn(C2O[C@H](CO)[C@@H](O)C2(F)F)c(=O)n1)c1ccc(Cl)cc1Cl (stereo partly drawn) [VV-006]	0.0775 ± 0.007	>1290	< 500	> 100	
O=C(Nc1ccn(C2O[C@H](CO)[C@@H](O)C2(F)F)c(=O)n1)c1ccc(Cl)c(Cl)c1 (stereo partly drawn) [VV-007]	0.0174 ± 0.0018	>5750	> 500	> 100	
COc1c(Cl)cc(C(=O)Nc2ccn(C3O[C@H](CO)[C@@H](O)C3(F)F)c(=O)n2)cc1Cl (stereo partly drawn) [VV-012]	0.0193 ± 0.0016	>5180	> 500	> 100	
COc1ccc(C(=O)Nc2ccn(C3O[C@H](CO)[C@@H](O)C3(F)F)c(=O)n2)cc1 (stereo partly drawn) [VV-013]	0.06 ± 0.0082	9530	> 500	572 ± 73	
COc1ccc(C(=O)Nc2ccn(C3O[C@H](CO)[C@@H](O)C3(F)F)c(=O)n2)c(OC)c1OC (stereo partly drawn) [VV-022]	0.0346 ± 0.0035	8670	> 500	300 ± 39	
O=C(Nc1ccn(C2O[C@H](CO)[C@@H](O)C2(F)F)c(=O)n1)c1ccc(Cl)cc1 (stereo partly drawn) [VV-033H]	0.0376 ± 0.0054	3670		138 ± 28	
Cc1ccc(C(=O)Nc2ccn(C3O[C@H](CO)[C@@H](O)C3(F)F)c(=O)n2)cc1 (stereo partly drawn) [VV-036]	0.0431 ± 0.0044	7650			CC50 at 48 h [10]: 329 ± 57 µM; CC50 at 48 h [11]: 240 ± 40 µM
CCc1ccc(C(=O)Nc2ccn(C3O[C@H](CO)[C@@H](O)C3(F)F)c(=O)n2)cc1 (stereo partly drawn) [VV-038]	0.0584 ± 0.0099	8430			CC50 at 48 h [10]: 492 ± 58 µM; CC50 at 48 h [11]: 360 ± 80 µM
NC(=O)c1ncn([C@@H]2O[C@H](CO)[C@@H](O)[C@H]2O)n1 [ribavirin, reference compound]	51.6 ± 2.08	10.2	> 500	527 ± 68.2	
